Measured values as given in PMC6211230, “Assessment of the antiproliferative and apoptotic roles of sulfonamide carbonic anhydrase IX inhibitors in HeLa cancer cell line” (Journal of Enzyme Inhibition and Medicinal Chemistry, 2018).

Tests used:
Format in all cases: cell-based, human
[1] = tested on: HeLa; experiment: WST-1 cytotoxicity, HeLa
Protocol: (§1) Cancer and normal cell lines were purchased from ATCC and stored in liquid nitrogen. HT-29 (colon adenoma cancer), HeLa (cervix adenoma cancer cell), MDA-MB-231 (breast adenoma cancer cell) and HEK-293 (embryonic kidney epithelial cell), PNT-1A (normal prostate cells) cell lines were incubated in DMEM: F-12 and RPMI-1640, including 10% Foetal Bovine Serum (FBS), 100 μg/mL streptomycin/100 IU/mL penicillin, at 37 °C in an incubator containing 5% CO2, 95% air in a humid atmosphere.
(§2) The cytotoxic effects of the substances were evaluated with WST-1 kits (Roche, Germany) in accordance with the manufacturer’s protocols. The cells were plated on 96-well plates (10^4 cells in each well). After incubation for 24 h, the media were discarded and the substances and Cisplatin as the control drug, at doses of 0, 2.5, 5, 10, 25, 50, 100, and 200 μM, were incubated for 24, 48, and 72 h. WST-1 reactive of 10 µl was added to all wells. Following 4 h incubation, the measurements were taken on a plate reader (Spectramax M5) at wavelengths of 450 and 630 nm. Graphs were then created and the IC50 value of each substance was calculated.

[2] = tested on: HT-29; experiment: WST-1 cytotoxicity, HT-29
Protocol: as §1, §2

[3] = tested on: MDA-MB-231; experiment: WST-1 cytotoxicity, MDA-MB-231
Protocol: as §1, §2

[4] = tested on: HEK-293; experiment: WST-1 cytotoxicity, HEK-293 normal cells; conditions: HEK-293 normal cell
Protocol: as §1, §2

[5] = tested on: PNT-1A; experiment: WST-1 cytotoxicity, PNT-1A normal cells; conditions: PNT-1A normal cell
Protocol: as §1, §2

SMILES: NS(=O)(=O)c1ccc(CCNCc2cc(Cl)cc(Cl)c2O)cc1 [Compound B-2]
- IC50 ([1]; 24 h): 234 µM
- IC50 ([1]; 48 h): 212 µM
- IC50 ([1]; 72 h): 154 µM
- IC50 ([2]; HT-29, 24 h): 356 µM
- IC50 ([2]; HT-29, 48 h): 200 µM
- IC50 ([2]; HT-29, 72 h): 155 µM
- IC50 ([3]; MDA-MB-231, 24 h): 145 µM
- IC50 ([3]; MDA-MB-231, 48 h): 43.3 µM
- IC50 ([3]; MDA-MB-231, 72 h): 54.3 µM
- IC50 ([4]; 24 h): 230 µM
- IC50 ([4]; 48 h): 215 µM
- IC50 ([4]; 72 h): 120 µM
- IC50 ([5]; 24 h): 55.4 µM
- IC50 ([5]; 48 h): 23.2 µM
- IC50 ([5]; 72 h): 12.3 µM

SMILES: N.N.[Cl][Pt][Cl] [Cisplatin, reference compound]
- IC50 ([1]; 24 h): 28.9 µM
- IC50 ([1]; 48 h): 7.6 µM
- IC50 ([1]; 72 h): 6.1 µM
- IC50 ([2]; HT-29, 24 h): 23.7 µM
- IC50 ([2]; HT-29, 48 h): 20 µM
- IC50 ([2]; HT-29, 72 h): 16.3 µM
- IC50 ([3]; MDA-MB-231, 24 h): 21.2 µM
- IC50 ([3]; MDA-MB-231, 48 h): 10.2 µM
- IC50 ([3]; MDA-MB-231, 72 h): 7 µM
- IC50 ([4]; 24 h): 29.6 µM
- IC50 ([4]; 48 h): 14 µM
- IC50 ([4]; 72 h): 2 µM
- IC50 ([5]; 24 h): 13.4 µM
- IC50 ([5]; 48 h): 11.4 µM
- IC50 ([5]; 72 h): 8.2 µM

SMILES: NS(=O)(=O)c1ccc(CCNCc2cc(Cl)ccc2O)cc1 [Compound B-1]
- IC50 ([1]; 24 h): 218 µM
- IC50 ([1]; 48 h): 112 µM
- IC50 ([1]; 72 h): 98.9 µM
- IC50 ([2]; HT-29, 24 h): 606 µM
- IC50 ([2]; HT-29, 48 h): 63.8 µM
- IC50 ([2]; HT-29, 72 h): 91.8 µM
- IC50 ([3]; MDA-MB-231, 24 h): 492 µM
- IC50 ([3]; MDA-MB-231, 48 h): 595 µM
- IC50 ([3]; MDA-MB-231, 72 h): 243 µM
- IC50 ([4]; 24 h): 324 µM
- IC50 ([4]; 48 h): 207 µM
- IC50 ([4]; 72 h): 63.7 µM
- IC50 ([5]; 24 h): 593 µM
- IC50 ([5]; 48 h): 190 µM
- IC50 ([5]; 72 h): 372 µM

SMILES: NS(=O)(=O)c1ccc(CCN=Cc2ccccc2O)cc1 [Compound A-3]
- IC50 ([1]; 24 h): 123 µM
- IC50 ([1]; 48 h): 112 µM
- IC50 ([1]; 72 h): 76.5 µM
- IC50 ([2]; HT-29, 24 h): 143 µM
- IC50 ([2]; HT-29, 48 h): 100 µM
- IC50 ([2]; HT-29, 72 h): 87.4 µM
- IC50 ([3]; MDA-MB-231, 24 h): 98.5 µM
- IC50 ([3]; MDA-MB-231, 48 h): 80.5 µM
- IC50 ([3]; MDA-MB-231, 72 h): 65.4 µM
- IC50 ([4]; 24 h): 98.4 µM
- IC50 ([4]; 48 h): 65.4 µM
- IC50 ([4]; 72 h): 32.2 µM
- IC50 ([5]; 24 h): 45.4 µM
- IC50 ([5]; 48 h): 43.3 µM
- IC50 ([5]; 72 h): 23.3 µM

SMILES: NS(=O)(=O)c1ccc(CCNCc2ccccc2O)cc1 [Compound B-3]
- IC50 ([1]; 24 h): 156 µM
- IC50 ([1]; 48 h): 134 µM
- IC50 ([1]; 72 h): 45.4 µM
- IC50 ([2]; HT-29, 24 h): 560 µM
- IC50 ([2]; HT-29, 48 h): 450 µM
- IC50 ([2]; HT-29, 72 h): 210 µM
- IC50 ([3]; MDA-MB-231, 24 h): 345 µM
- IC50 ([3]; MDA-MB-231, 48 h): 234 µM
- IC50 ([3]; MDA-MB-231, 72 h): 126 µM
- IC50 ([4]; 24 h): 179 µM
- IC50 ([4]; 48 h): 120 µM
- IC50 ([4]; 72 h): 45.4 µM
- IC50 ([5]; 24 h): 100 µM
- IC50 ([5]; 48 h): 89.4 µM
- IC50 ([5]; 72 h): 70.4 µM

SMILES: NS(=O)(=O)c1ccc(CCN=Cc2cc(Cl)cc(Cl)c2O)cc1 [Compound A-2]
- IC50 ([1]; 24 h): 345 µM
- IC50 ([1]; 48 h): 300 µM
- IC50 ([1]; 72 h): 123 µM
- IC50 ([2]; HT-29, 24 h): 234 µM
- IC50 ([2]; HT-29, 48 h): 254 µM
- IC50 ([2]; HT-29, 72 h): 134 µM
- IC50 ([3]; MDA-MB-231, 24 h): 125 µM
- IC50 ([3]; MDA-MB-231, 48 h): 145 µM
- IC50 ([3]; MDA-MB-231, 72 h): 100 µM
- IC50 ([4]; 24 h): 120 µM
- IC50 ([4]; 48 h): 100 µM
- IC50 ([4]; 72 h): 65.4 µM
- IC50 ([5]; 24 h): 167 µM
- IC50 ([5]; 48 h): 170 µM
- IC50 ([5]; 72 h): 100 µM
